Experimental data taken from US10844044B2 (Vanderbilt University, priority 2018, dated 2020).

target: WDR5 (Homo sapiens (Human), UniProt P61964); assay: TR-FRET binding assay (displacement of 10mer-Thr-FAM probe from WDR5); conditions: read-out: Ki for Inhibition of WDR5 by TR-FRET assay

Going from Cc1cc([C@@H](NC(=O)c2cc(CN3C[C@H](C)OC3=N)cc(-c3cccnc3C(F)(F)F)c2)C2CC2)ccc1F [Example 296, N—((S)-cyclopropyl(4-fluoro-3-methylphenyl)methyl)-3-(((S)-2-imino-5-methyloxazolidin-3-yl)methyl)-5-(2-(trifluoromethyl)pyridin-3-yl)benzamide] to N=C1SCCN1Cc1cc(C(=O)N[C@H](c2ccc(F)c(F)c2)C2CC2)cc(-c2cccnc2C(F)(F)F)c1 [Example 318, (S)—N-(Cyclopropyl(3,4-difluorophenyl)methyl)-3-((2-iminothiazolidin-3-yl)methyl)-5-(2-(trifluoromethyl)pyridin-3-yl)benzamide], the Ki falls from 7 nM to 0.29 nM (24-fold).

CCn1cc(-c2cc(Cn3ccn(C4CC4)c3=N)cc(C(=O)NCc3ccc(F)c(C)c3)c2)c(C(F)(F)F)n1 [Example 197, 3-((3-Cyclopropyl-2-imino-2,3-dihydro-1H-imidazol-1-yl)methyl)-5-(1-ethyl-3-(trifluoromethyl)-1H-pyrazol-4-yl)-N-(4-fluoro-3-methylbenzyl)benzamide] and Cc1cc([C@@H](NC(=O)c2cc(Cn3cc(F)ccc3=N)cc(-c3cn(C)nc3C(F)(F)F)c2)C2CC2)ccc1F [Example 353, (S)—N-(cyclopropyl(4-fluoro-3-methylphenyl)methyl)-3-((5-fluoro-2-iminopyridin-1(2H)-yl)methyl)-5-(1-methyl-3-(trifluoromethyl)-1H-pyrazol-4-yl)benzamide] cannot be ordered by Ki: < 0.1 nM for the first, < 0.1 nM for the second.

Going from N=C1SCCN1Cc1cc(C(=O)N[C@H](c2ccc(Cl)c(Cl)c2)C2CC2)cc(-c2ncc(F)cc2C(F)(F)F)c1 [Example 317, (S)—N-(Cyclopropyl(3,4-dichlorophenyl)methyl)-3-(5-fluoro-3-(trifluoromethyl)pyridin-2-yl)-5-((2-iminothiazolidin-3-yl)methyl)benzamide] to Cc1cc([C@@H](NC(=O)c2cc(Cn3cccc(F)c3=N)cc(-c3cc(C(F)(F)F)nn3C)c2)C2CC2)ccc1F [Example 345, (S)—N-(Cyclopropyl (4-fluoro-3-methylphenyl)methyl)-3-((3-fluoro-2-iminopyridin-1(2H)-yl)methyl)-5-(1-methyl-3-(trifluoromethyl)-1H-pyrazol-5-yl)benzamide], the Ki rises from 0.28 nM to 2.4 nM (8.6-fold). The first binds more tightly here.

same assay, conditions: read-out: Ki for Inhibition of WDR5 by TR-FRET assay; TR-FRET, 10mer-Thr-FAM probe, WDR5-His tag 2 nM, pH 7.0

Compared with COc1cc(-c2cc(Cn3ccn(C)c3=N)cc(C(=O)NCc3ccc(Cl)c(Cl)c3)c2)c(F)cn1 [Example 184, N-(3,4-dichlorobenzyl)-3-(5-fluoro-2-methoxypyridin-4-yl)-5-((2-imino-3-methyl-2,3-dihydro-1H-imidazol-1-yl)methyl)benzamide], Cc1[nH]c(=O)ccc1-c1cc(Cn2ccn(C)c2=N)cc(C(=O)NCc2ccc(Cl)c(Cl)c2)c1 [Example 112, N-(3,4-Cichlorobenzyl)-3-((2-imino-3-methyl-2,3-dihydro-1-imidazol-1-yl)methyl)-5-(2-methyl-6-oxo-1,6-dihydropyridin-3-yl)benzamide] is 52-fold higher in Ki: 0.56 nM for the first, 29 nM for the second. The first binds more tightly here.

Compared with Cc1cc([C@@H](NC(=O)c2cc(Cn3ccn(C)c3=N)cc(N3CCCC3)c2)C2CC2)ccc1F [Example 206, (S)—N-(Cyclopropyl(4-fluoro-3-methylphenyl)methyl)-3-((2-imino-3-methyl-2,3-dihydro-1H-imidazol-1-yl)methyl)-5-(pyrrolidin-1-yl)benzamide], Cc1cc([C@@H](NC(=O)c2cc(Cn3ccn(C)c3=N)cc(N3CCC[C@H]3C)c2)C2CC2)ccc1F [Example 226, N—((S)-Cyclopropyl(4-fluoro-3-methylphenyl)methyl)-3-((2-imino-3-methyl-2,3-dihydro-1H-imidazol-1-yl)methyl)-5-((R)-2-methylpyrrolidin-1-yl)benzamide] is 21-fold higher in Ki: 0.34 nM for the first, 7.1 nM for the second.

Compared with CCn1cc(-c2cc(CN3CCOC3=N)cc(C(=O)NCC3CCCO3)c2)c(C(F)(F)F)n1 (centres unmarked) [Example 289, 3-(1-Ethyl-3-(trifluoromethyl)-1H-pyrazol-4-yl)-5-((2-iminooxazolidin-3-yl)methyl)-N-((tetrahydrofuran-2-yl)methyl)benzamide], Cc1cc([C@@H](NC(=O)c2cc(CN3CCCSC3=N)cc(-c3cccnc3C(F)(F)F)c2)C2CC2)ccc1F [Example 315, (S)—N-(Cyclopropyl(4-fluoro-3-methylphenyl)methyl)-3-((2-imino-1,3-thiazinan-3-yl)methyl)-5-(2-(trifluoromethyl)pyridin-3-yl)benzamide] is 31-fold lower in Ki: 31 nM for the first, 1 nM for the second. The second binds more tightly here.

Compared with Cc1cc([C@@H](NC(=O)c2cc(Cn3ccn(C)c3=N)cc(C3(C(F)(F)F)CC3)c2)C2CC2)ncc1F [Example 218, (S)—N-(cyclopropyl(5-fluoro-4-methylpyridin-2-yl)methyl)-3-((2-imino-3-methyl-2,3-dihydro-1H-imidazol-1-yl)methyl)-5-(1-(trifluoromethyl)cyclopropyl)benzamide], Cc1ccnc([C@@H](NC(=O)c2cc(Cn3ccn(C)c3=N)cc(OC(F)(F)F)c2)C2CC2)c1 [Example 149, (S)—N-(Cyclopropyl(4-methylpyridin-2-yl)methyl)-3-((2-imino-3-methyl-2,3-dihydro-1H-imidazol-1-yl)methyl)-5-(trifluoromethoxy)benzamide] is higher in Ki: < 0.1 nM for the first, 0.56 nM for the second.

First: Cc1cc(F)ccc1-c1cc(Cn2ccn(C)c2=N)cc(C(=O)N[C@@H](c2ccc(F)c(C)n2)C2CC2)c1 [Example 167, (R)—N-(Cyclopropyl(5-fluoro-6-methylpyridin-2-yl)methyl)-4′-fluoro-5-((2-imino-3-methyl-2,3-dihydro-1H-imidazol-1-yl)methyl)-2′-methyl-[1,1′-biphenyl]-3-carboxamide]
Second: CCn1cc(-c2cc(Cn3ccn(C)c3=N)cc(C(=O)N[C@H](c3ccc(F)c(C)c3)C3CC3)c2)c(C)n1 [Example 225, (S)—N-(Cyclopropyl(4-fluoro-3-methylphenyl)methyl)-3-(1-ethyl-3-methyl-1H-pyrazol-4-yl)-5-((2-imino-3-methyl-2,3-dihydro-1H-imidazol-1-yl)methyl)benzamide]
The Ki of the first is higher: 0.21 nM for the first, < 0.1 nM for the second.

Going from CCOc1cc(Cn2ccn(C)c2=N)cc(C(=O)N[C@@H](C)c2ccc(F)c(C)c2)c1 [Example 176, (S)-3-Ethoxy-N-(1-(4-fluoro-3-methylphenyl)ethyl)-5-((2-imino-3-methyl-2,3-dihydro-1H-imidazol-1-yl)methyl)benzamide] to Cc1cc([C@@H](NC(=O)c2cc(Cn3ccn(C)c3=N)cc(-n3ccnc3C)c2)C2CC2)ccc1F [Example 224, (S)—N-(Cyclopropyl(4-fluoro-3-methylphenyl)methyl)-3-((2-imino-3-methyl-2,3-dihydro-H-imidazol-1-yl)methyl)-5-(2-methyl-1H-imidazol-1-yl)benzamide], the Ki falls from 0.5 nM to 0.14 nM (3.6-fold). The second binds more tightly here.

First: CCOc1c(C(=O)N[C@H](c2ccc(F)c(C)c2)C2CC2)cc(Cn2ccoc2=N)cc1-c1cn(C)nc1C(F)(F)F [Example 304]
Second: Cc1cc([C@@H](NC(=O)c2cc(Cn3ccn(C)c3=N)cc(-c3cn(CC(C)C)nc3C(F)(F)F)c2)C2CC2)ccc1F [Example 165, (S)—N-(Cyclopropyl(4-fluoro-3-methylphenyl)methyl)-3-((2-imino-3-methyl-2,3-dihydro-1H-imidazol-1-yl)methyl)-5-(1-isobutyl-3-(trifluoromethyl)-1H-pyrazol-4-yl)benzamide]
The Ki of the first is lower: < 0.1 nM for the first, 0.14 nM for the second. The first binds more tightly here.

Cc1ccnc(C(NC(=O)c2cc(Cn3ccn(C)c3=N)cc(-c3ccnn3C)c2)C2CC2)c1 (centres unmarked) [Example 12, N-(Cyclopropyl(4-methylpyridin-2-yl)methyl)-3-((2-imino-3-methyl-2,3-dihydro-1H-imidazol-1-yl)methyl)-5-(1-methyl-1H-pyrazol-5-yl)benzamide] and Cc1ccnc(C(NC(=O)c2cc(Cn3ccn(C)c3=N)cc(-c3ccnc(C)c3)c2)C2CC2)c1 (centres unmarked) [Example 7] are within 1.5-fold of each other in Ki: 1.2 nM for the first, 0.8 nM for the second.

Compared with COc1cc(CNC(=O)c2cc(Cn3ccn(C)c3=N)cc(OCC3CC3)c2)cc(OC)c1 [Example 178, 3-(Cyclopropylmethoxy)-N-(3,5-dimethoxybenzyl)-5-((2-imino-3-methyl-2,3-dihydro-1H-imidazol-1-yl)methyl)benzamide], COc1cc(CNC(=O)c2cc(Cn3ccn(C)c3=N)cc(-c3ccc(F)cc3C(F)(F)F)n2)cc(OC)c1 [Example 100, N-(3,5-Dimethoxybenzyl)-6-(4-fluoro-2-(trifluoromethyl)phenyl)-4-((2-imino-3-methyl-2,3-dihydro-1-imidazol-1-yl)methyl)picolinamide] is 4.6-fold lower in Ki: 3.3 nM for the first, 0.71 nM for the second.

Going from Cc1cc(CNC(=O)c2cc(Cn3ccn(C)c3=N)cc(-c3ccc(F)cc3C(F)(F)F)n2)ccc1Cl [Example 99, N-(4-Chloro-3-methylbenzyl)-6-(4-fluoro-2-(trifluoromethyl)phenyl)-4-((2-imino-3-methyl-2,3-dihydro-1H-imidazol-1-yl)methyl)picolinamide] to Cc1cc(CNC(=O)c2cc(Cn3ccn(C)c3=N)cc(-c3ccncc3C)c2)ccc1Cl [Example 16, N-(4-Chloro-3-methylbenzyl)-3-((2-imino-3-methyl-2,3-dihydro-1H-imidazol-1-yl)methyl)-5-(3-methylpyridin-4-yl)benzamide], the Ki falls from 1.1 nM to 0.49 nM (2.2-fold). The second binds more tightly here.

Going from COc1cc(-c2cc(Cn3ccn(C)c3=N)cc(C(=O)NC(c3cc(C)ccn3)C3CC3)c2)ccn1 (centres unmarked) [Example 14] to COC(=O)CC(NC(=O)c1cc(Cn2ccn(C)c2=N)cc(-c2ccc(F)cc2C(F)(F)F)c1F)c1ccc(Cl)c(Cl)c1 (centres unmarked) [Example 110, Methyl 3-(3,4-dichlorophenyl)-3-(2,4′-difluoro-5-((2-imino-3-methyl-2,3-dihydro-1H-imidazol-1-yl)methyl)-2′-(trifluoromethyl)-[1,1′-biphenyl]-3-carboxamido)propanoate], the Ki falls from 6 nM to 0.1 nM (60-fold). The second binds more tightly here.

Work on Cn1ccn(Cc2cc(C(=O)N[C@@H](CC(=O)O)c3cccc(C(F)(F)F)c3)c(F)c(-c3ccc(F)cc3C(F)(F)F)c2)c1=N [Example 148, (S)-3-(2,4′-Difluoro-5-((2-imino-3-methyl-2,3-dihydro-1H-imidazol-1-yl)methyl)-2′-(trifluoromethyl)-[1,1′-biphenyl]-3-carboxamido)-3-(3-(trifluoromethyl)phenyl)propanoic acid] yielded a Ki of 0.29 nM.
